Data as given in patent publication US20240252488A1 (KOREA RESEARCH INSTITUTE OF CHEMICAL TECHNOLOGY, priority 2020, published 2024).
pKd: −log10 of the molar value.

Tests used:
FADD−/− Jurkat cells = assay: Necroptosis inhibition assay, TNF-α-induced necroptosis (CellTiter-Glo 2.0); format: cell-based, human; details: TNF-α 15 ng/mL; for Necroptosis inhibition assay (Rescue %) 1 μM: compound 1 μM; for Necroptosis inhibition assay (Rescue %) 10 μM: compound 10 μM
Outline: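 Cmpd 0.1/1/10 μM final, 30 min RT preincubation; TNF-α 15 ng/mL final; 20–24 h, 37° C, 5% CO2. Readout: ATP luminescence (reagent 1:3 in PBS), 0.5 s/well. Cytotoxicity and % necroptosis inhibition calculated from signal.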

MLKL [1] = molecular target: T1, MLKL (Homo sapiens, UniProt Q8NB16); assay: MLKL degradation assay in HepG2 cell line (western blot); format: cell-based; design: endogenous in cells; host or cells: HepG2 or HaCaT; details: cell line not given; for Degradation assay (Degradation %) 1 μM: compound 1 μM; for Degradation assay (Degradation %) 10 μM: compound 10 μM
T1 sequence (Q8NB16 1-471): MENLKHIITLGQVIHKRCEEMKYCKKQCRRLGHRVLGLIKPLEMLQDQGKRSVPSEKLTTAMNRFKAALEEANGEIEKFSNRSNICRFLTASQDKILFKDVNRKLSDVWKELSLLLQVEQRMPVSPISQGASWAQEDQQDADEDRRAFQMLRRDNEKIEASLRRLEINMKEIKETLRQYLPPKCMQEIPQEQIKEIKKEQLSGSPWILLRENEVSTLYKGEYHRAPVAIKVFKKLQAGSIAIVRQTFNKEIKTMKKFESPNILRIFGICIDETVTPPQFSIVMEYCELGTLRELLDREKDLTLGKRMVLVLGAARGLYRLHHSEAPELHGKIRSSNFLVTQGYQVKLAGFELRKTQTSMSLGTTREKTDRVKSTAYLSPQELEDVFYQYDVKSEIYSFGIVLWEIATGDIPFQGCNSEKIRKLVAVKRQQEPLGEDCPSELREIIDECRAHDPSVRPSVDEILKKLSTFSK
Outline: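 HepG2, cpd final 1 or 10 μM, 20-24 h, 37 °C/5% CO2; RIPA lysis, BCA-normalized, 10-15 μg/lane SDS-PAGE, western blot, ECL read-out.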

MLKL [2] = molecular target: T1, MLKL; assay: Measurement of binding affinity with MLKL receptor (competitive binding assay, Kd); design: made in house; host or cells: HEK 293 cell line (T7 phage in E. coli BL21-derived host is also described)
Outline: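 Kd comes from a bead-based competition format: compound-dependent loss of DNA-tagged, HEK 293-expressed MLKL capture, measured as eluate kinase by qPCR. Final DMSO is 0.9%.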

Row | Structure (SMILES) | Necroptosis inhibition assay (Rescue %) 1 μM (FADD−/− Jurkat cells) [%] | Necroptosis inhibition assay (Rescue %) 10 μM (FADD−/− Jurkat cells) [%] | Degradation assay (Degradation %) 1 μM (MLKL [1]) [%] | Degradation assay (Degradation %) 10 μM (MLKL [1]) [%] | pKd (MLKL [2]) | Necroptosis inhibition assay (Rescue %) 1 μM (FADD−/− Jurkat cells; FADD−/− Jurkat cells) [%] | Necroptosis inhibition assay (Rescue %) 10 μM (FADD−/− Jurkat cells; FADD−/− Jurkat cells) [%] | Necroptosis inhibition assay (Rescue %) 1.1 μM (FADD−/− Jurkat cells; compound 1.1 µM)
1 | Nc1ncc(-c2cnn(C3CCN(CCOCCOCCOCCNc4cccc5c4C(=O)N(C4CCC(=O)NC4=O)C5=O)CC3)c2)nc1C(=O)O[C@@H](C(=O)Nc1ccc(F)cc1)c1ccccc1 (stereo partly drawn) [TDH-153, (R)-2-((4-fluorophenyl)amino)-2-oxo-1-phenylethyl 3-amino-6-(1-(1-(2-(2-(2-(2-((2-(2,6-dioxopiperidin-3-yl)-1,3-dioxoisoindolin-4-yl)amino)ethoxy)ethoxy)ethoxy)ethyl)piperidin-4-yl)-1H-pyrazol-4-yl)pyrazine-2-carboxylate] | 37.21 | 16.52 | 37.66 | 24.63 | 8.04 | – | – | –
2 | Nc1ncc(-c2cnn(C3CCN(CC4CN(c5ccc6c(c5)C(=O)N(C5CCC(=O)NC5=O)C6=O)CCO4)CC3)c2)nc1C(=O)OC(C(=O)Nc1ccc(F)cc1)c1ccccc1 (centres unmarked) [TDH-311, 2-((4-fluorophenyl)amino)-2-oxo-1-phenylethyl 3-amino-6-(1-(1-((4-(2-(2,6-dioxopiperidin-3-yl)-1,3-dioxoisoindolin-5-yl)morpholin-2-yl)methyl)piperidin-4-yl)-1H-pyrazol-4-yl)pyrazine-2-carboxylate] | 57.09 | 39.01 | 69.38 | 52.38 | 8.28 | – | – | –
3 | Nc1ncc(-c2cnn(C3CCN(CC4CCN(CC(=O)N5CCN(c6cccc7c6C(=O)N(C6CCC(=O)NC6=O)C7=O)CC5)CC4)CC3)c2)nc1C(=O)OC(C(=O)Nc1ccc(F)cc1)c1ccccc1 (centres unmarked) [TDH-237, 2-((4-fluorophenyl)amino)-2-oxo-1-phenylethyl 3-amino-6-(1-(1-((1-(2-(4-(2-(2,6-dioxopiperidin-3-yl)-1,3-dioxoisoindolin-4-yl)piperazin-1-yl)-2-oxoethyl)piperidin-4-yl)methyl)piperidin-4-yl)-1H-pyrazol-4-yl)pyrazine-2-carboxylate] | 67.77 | 34.51 | 56.98 | 65.18 | 8.74 | – | – | –
4 | Nc1ncc(-c2cnn(C3CCN(CCCCCCCCCCNC(=O)C4CCN(c5cccc6c5C(=O)N(C5CCC(=O)NC5=O)C6=O)CC4)CC3)c2)nc1C(=O)O[C@@H](C(=O)Nc1ccc(F)cc1)c1ccccc1 (stereo partly drawn) [TDH-156, (R)-2-((4-fluorophenyl)amino)-2-oxo-1-phenylethyl 3-amino-6-(1-(1-(10-(1-(2-(2,6-dioxopiperidin-3-yl)-1,3-dioxoisoindolin-4-yl)piperidine-4-carboxamido)decyl)piperidin-4-yl)-1H-pyrazol-4-yl)pyrazine-2-carboxylate] | 19.9 | 21.77 | 31.35 | 18.75 | 7.28 | – | – | –
5 | Nc1ncc(-c2cnn(C3CCN(CCOCCOCCOCCNC(=O)COc4ccc5c(c4)C(=O)N(C4CCC(=O)NC4=O)C5=O)CC3)c2)nc1C(=O)O[C@@H](C(=O)Nc1ccc(F)cc1)c1ccccc1 (stereo partly drawn) [TDH-166, (R)-2-((4-fluorophenyl)amino)-2-oxo-1-phenylethyl 3-amino-6-(1-(1-(1-((2-(2,6-dioxopiperidin-3-yl)-1,3-dioxoisoindolin-5-yl)oxy)-2-oxo-6,9,12-trioxa-3-azatetradecan-14-yl)piperidin-4-yl)-1H-pyrazol-4-yl)pyrazine-2-carboxylate] | 27.44 | 65.57 | 18.17 | 60.05 | 8.47 | – | – | –
6 | Nc1ncc(-c2cnn(C3CCN(CCOCCOCCNC(=O)COc4cccc5c4C(=O)N(C4CCC(=O)NC4=O)C5=O)CC3)c2)nc1C(=O)O[C@@H](C(=O)Nc1ccc(F)cc1)c1ccccc1 (stereo partly drawn) [TDH-135, (R)-2-((4-fluorophenyl)amino)-2-oxo-1-phenylethyl 3-amino-6-(1-(1-(2-(2-(2-(2-((2-(2,6-dioxopiperidin-3-yl)-1,3-dioxoisoindolin-4-yl)oxy)acetamido)ethoxy)ethoxy)ethyl)piperidin-4-yl)-1H-pyrazol-4-yl)pyrazine-2-carboxylate] | 46.82 | 33.77 | 23.45 | 57.93 | 9.04 | – | – | –
7 | Nc1ncc(-c2cnn(C3CCN(CC4CCN(CC(=O)NCCCNc5cccc6c5C(=O)N(C5CCC(=O)NC5=O)C6=O)CC4)CC3)c2)nc1C(=O)OC(C(=O)Nc1ccc(F)cc1)c1ccccc1 (centres unmarked) [TDH-235, 2-((4-fluorophenyl)amino)-2-oxo-1-phenylethyl 3-amino-6-(1-(1-((1-(2-((3-((2-(2,6-dioxopiperidin-3-yl)-1,3-dioxoisoindolin-4-yl)amino)propyl)amino)-2-oxoethyl)piperidin-4-yl)methyl)piperidin-4-yl)-1H-pyrazol-4-yl)pyrazine-2-carboxylate] | 7.64 | 19.27 | 45.01 | 49.89 | 8.07 | – | – | –
8 | Nc1ncc(-c2cnn(C3CCN(CCCN4CC5CN(C(=O)CCc6ccc7c(c6)C(=O)N(C6CCC(=O)NC6=O)C7=O)CC5C4)CC3)c2)nc1C(=O)O[C@@H](C(=O)Nc1ccc(F)cc1)c1ccccc1 (stereo partly drawn) [TDH-480, (R)-2-((4-fluorophenyl)amino)-2-oxo-1-phenylethyl 3-amino-6-(1-(1-(3-(5-(3-(2-(2,6-dioxopiperidin-3-yl)-1,3-dioxoisoindolin-5-yl)propanoyl)hexahydropyrrolo[3,4-c]pyrrol-2(1H)-yl)propyl)piperidin-4-yl)-1H-pyrazol-4-yl)pyrazine-2-carboxylate] | – | – | 46.42 | 73 | 9.32 | 35.76 | 39.78 | –
9 | Nc1ncc(-c2cnn(C3CCN(CCC4CCN(C(=O)c5ccc6c(c5)CN(C5CCC(=O)NC5=O)C6=O)CC4)CC3)c2)nc1C(=O)O[C@@H](C(=O)Nc1ccc(F)cc1)c1ccccc1 (stereo partly drawn) [TDH-547, (R)-2-((4-fluorophenyl)amino)-2-oxo-1-phenylethyl 3-amino-6-(1-(1-(2-(1-(2-(2,6-dioxopiperidin-3-yl)-1-oxoisoindoline-5-carbonyl)piperidin-4-yl)ethyl)piperidin-4-yl)-1H-pyrazol-4-yl)pyrazine-2-carboxylate] | – | – | 93.36 | 68.21 | 9.37 | 35.18 | 19.80 | –
10 | Nc1ncc(-c2cnn(C3CCN(CCCN4CCN(C(=O)COc5ccc6c(c5)C(=O)N(C5CCC(=O)NC5=O)C6=O)CC4)CC3)c2)nc1C(=O)O[C@@H](C(=O)Nc1ccc(F)cc1)c1ccccc1 (stereo partly drawn) [TDH-358, (R)-2-((4-fluorophenyl)amino)-2-oxo-1-phenylethyl 3-amino-6-(1-(1-(3-(4-(2-((2-(2,6-dioxopiperidin-3-yl)-1,3-dioxoisoindolin-5-yl)oxy)acetyl)piperazin-1-yl)propyl)piperidin-4-yl)-1H-pyrazol-4-yl)pyrazine-2-carboxylate] | – | 39.65 | 91.6 | 86.73 | 9.30 | – | – | 100.10 (1.1 µM) %
